Legend:
[1] = biological target: T1, BvHSS (Blastochloris viridis, UniProt O32323); test: X-ray crystallography; format: binding
T1 construct: gene hss; full-length BvHSS from pETM14, E. coli BL21 (DE3); N-terminal 6xHis-tag cut with HRV3C protease; homodimer; active site within one subunit; domains cover residues 3-477; first four amino acids not traced
T1 sequence (O32323 1-477): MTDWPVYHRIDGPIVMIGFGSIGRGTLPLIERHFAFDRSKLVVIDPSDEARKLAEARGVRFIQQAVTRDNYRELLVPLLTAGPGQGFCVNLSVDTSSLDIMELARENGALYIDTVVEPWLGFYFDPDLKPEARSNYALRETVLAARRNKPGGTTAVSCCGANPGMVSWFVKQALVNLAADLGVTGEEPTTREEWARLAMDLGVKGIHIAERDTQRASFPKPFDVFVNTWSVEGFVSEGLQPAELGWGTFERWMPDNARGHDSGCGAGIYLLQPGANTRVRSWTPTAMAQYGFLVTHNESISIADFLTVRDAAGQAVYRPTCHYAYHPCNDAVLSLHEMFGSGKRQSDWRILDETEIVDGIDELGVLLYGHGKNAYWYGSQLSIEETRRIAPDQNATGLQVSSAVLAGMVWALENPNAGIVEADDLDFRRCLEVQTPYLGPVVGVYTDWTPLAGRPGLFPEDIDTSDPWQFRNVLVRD

[2] = biological target: T2, BvHSS (Blastochloris viridis, UniProt O32323, H296S); test: X-ray crystallography; format: binding; conditions: pH 4.6
T2 construct: gene hss; full-length BvHSS from pETM14, E. coli BL21 (DE3); N-terminal 6xHis-tag cut with HRV3C protease; homodimer; active site within one subunit; domains cover residues 3-477; first four amino acids not traced

[3] = biological target: T3, BvHSS (Blastochloris viridis, UniProt O32323, E237Q); test: X-ray crystallography; format: binding; conditions: co-crystal with 0.2 M AGM and 0.2 M PUT; no polyamine in active site; pH 4.6
T3 construct: gene hss; full-length BvHSS from pETM14, E. coli BL21 (DE3); N-terminal 6xHis-tag cut with HRV3C protease; homodimer; active site within one subunit; domains cover residues 3-477; first four amino acids not traced

[4] = biological target: T1, BvHSS; test: X-ray crystallography; format: biochemical; conditions: DAP co-crystal soaked 300 s with 0.2 M PUT; product formed in crystal; pH 4.8; active site, subunit A; transition-close state with partial Schiff base, modelled as 37Z
[5] = biological target: Blastochloris viridis homospermidine synthase (Blastochloris viridis) (UniProt O32323); test: crystal structure; hanging-drop vapour diffusion at 18 °C, reservoir 100 mM sodium acetate pH 4.6-4.8; NAD+ bound, with or without polyamines; two subunits (A and B) in the asymmetric unit

T2 sequence (O32323 whole entry H296S, the tested form may be a part): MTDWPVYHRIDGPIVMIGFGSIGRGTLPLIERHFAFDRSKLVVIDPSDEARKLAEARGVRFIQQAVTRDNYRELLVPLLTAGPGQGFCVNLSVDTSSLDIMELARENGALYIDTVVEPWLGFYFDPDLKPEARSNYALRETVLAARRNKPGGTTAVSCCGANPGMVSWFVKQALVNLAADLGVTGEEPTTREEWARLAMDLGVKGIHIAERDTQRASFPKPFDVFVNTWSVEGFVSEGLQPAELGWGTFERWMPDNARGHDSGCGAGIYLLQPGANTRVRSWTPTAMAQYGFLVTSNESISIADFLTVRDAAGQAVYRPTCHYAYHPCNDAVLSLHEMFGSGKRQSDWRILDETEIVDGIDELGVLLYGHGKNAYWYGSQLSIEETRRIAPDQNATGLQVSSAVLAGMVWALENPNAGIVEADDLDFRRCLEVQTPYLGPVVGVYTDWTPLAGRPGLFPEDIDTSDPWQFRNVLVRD
T3 sequence (O32323 whole entry E237Q, the tested form may be a part): as the sequence (O32323 whole entry H296S, the tested form may be a part) above, with E237Q, S296H counted along it

## NCCCN [1,3-diaminopropane]
[1]; co-crystal with 0.2 M DAP and 0.2 M PUT, NAD+ bound, pH 4.6, active site, second DAP at the ionic slide (pocket entrance), Table 3 misprints the PDB id as 4XQE
  X-ray crystallography: Two DAP molecules were found at two different positions in subunit A (PDB ID: 4XQC)

## NC(=O)c1ccc[n+]([C@@H]2O[C@H](COP(=O)(O)OP(=O)(O)OC[C@H]3O[C@@H](n4cnc5c(N)ncnc54)[C@H](O)[C@@H]3O)[C@@H](O)[C@H]2O)c1 [NAD^+]
[2]; co-crystal with 0.2 M AGM
  X-ray crystallography: BvHSS and BvHSS variants with bound NAD^+ in complex with various polyamines
[3]
  X-ray crystallography: BvHSS and BvHSS variants with bound NAD^+ in complex with various polyamines
[1]; no polyamine, pH 4.6, non-covalently bound prosthetic group
  X-ray crystallography: with bound NAD^+ (Protein Data Bank [PDB] ID: 4PLP)

## N=C(N)NCCCCN [agmatine]
[2]; co-crystal with 0.2 M AGM, NAD+ bound, active site
  X-ray crystallography: the variant H296S was found to bind AGM within the active site

## NCCCCN [putrescine]
[2]; AGM co-crystal soaked 300 s with 0.2 M PUT, NAD+ bound, active site, partial occupancy beside AGM, enzymatically inactive variant
  X-ray crystallography: partial replacement of AGM with PUT (Fig. 6f)
[1]; DAP co-crystal soaked 300 s with 0.2 M PUT, NAD+ bound, pH 4.8, inner binding site, subunit B, transition-close state
  X-ray crystallography: The active site of BvHSS with bound PUT (PDB ID: 4TVB, subunit B)

## NCCCCNCCCCN [sym-homospermidine, bis(4-aminobutyl)amine]
[4]
  X-ray crystallography: transition close state of the reduction to HSP bound in subunit A

## Blastochloris viridis homospermidine synthase (from UniProt O32323 1-477) (enzyme)
[5]
  stoichiometry N: 2

Source: PMC4725965, “Comprehensive Structural Characterization of the Bacterial Homospermidine Synthase–an Essential Enzyme of the Polyamine Metabolism” (Scientific Reports, 2016)
